Test system: X. campestris Provencia strain
Assay: growth (CFU) after 18 hours of incubation, oil compared to carvacrol (FIG. 2)
Format: cell-based, Xanthomonas campestris
Conditions: 0.01 mg/ml, oil vs carvacrol p-value=0.009
Experimental: The bars in the graph indicate the bacterial number (CFU) that was reached after 18 hours of incubation. […] Thus, a composition of biocide comprising oregano oil exerts synergistic effects, due, in part, to the multiple antimicrobial biochemicals that make up the oil (see FIG. 1).

Question: With `Cc1ccc(C(C)C)cc1O` [Carvacrol, carvacrol] as the compound, how does the “inhibition of growth, bacterial number (CFU)” value read?
Answer: The value was “not as effective as the essential oil”.
